In BindingDB's records for patent US10087191 (Jiangsu Hengrui Medicine, 2018):

Each compound was assayed against T1, Estrogen receptor (Homo sapiens, UniProt P03372) (assay: Biological Assay).
T1 sequence (P03372 whole entry): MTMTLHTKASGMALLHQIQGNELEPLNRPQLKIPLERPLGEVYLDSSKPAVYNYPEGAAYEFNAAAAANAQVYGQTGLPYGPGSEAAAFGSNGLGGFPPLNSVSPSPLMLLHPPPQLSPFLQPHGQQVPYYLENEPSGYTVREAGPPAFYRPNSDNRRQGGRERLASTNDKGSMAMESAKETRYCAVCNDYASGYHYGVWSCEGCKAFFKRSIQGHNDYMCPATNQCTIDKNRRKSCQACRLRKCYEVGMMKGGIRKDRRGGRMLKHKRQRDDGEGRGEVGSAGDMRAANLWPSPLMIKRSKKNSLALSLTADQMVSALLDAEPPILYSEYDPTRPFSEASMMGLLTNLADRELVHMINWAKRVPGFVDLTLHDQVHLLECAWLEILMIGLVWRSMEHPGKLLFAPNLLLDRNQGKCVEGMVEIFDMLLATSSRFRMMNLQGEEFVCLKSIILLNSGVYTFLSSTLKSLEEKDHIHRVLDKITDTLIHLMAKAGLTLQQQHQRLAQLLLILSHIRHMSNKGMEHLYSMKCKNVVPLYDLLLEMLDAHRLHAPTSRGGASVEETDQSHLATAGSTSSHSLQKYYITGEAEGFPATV

Row | IC50 [nM] | SMILES
1 | 2.11 | CC1Cc2cc(-c3cnn(C(F)F)c3)ccc2C(c2c(F)cc(/C=C/C(=O)O)cc2F)N1CC(C)(C)F (stereo not given) [US10087191, Example 13]
2 | 1.17 | CCn1cc(-c2cc3c(cc2F)C(c2c(F)cc(/C=C/C(=O)O)cc2F)N(CC(C)(C)F)C(C)C3)cn1 (stereo not given) [US10087191, Example 17]
3 | 1.52 | CCCn1cc(-c2ccc3c(c2)CC(C)N(CC(C)(C)F)C3c2c(F)cc(/C=C/C(=O)O)cc2F)cn1 (stereo not given) [US10087191, Example 18]
4 | 27.3 | CC1Cc2cc(-c3cnn(CCO)c3)ccc2C(c2c(F)cc(/C=C/C(=O)O)cc2F)N1CC(C)(C)F (stereo not given) [US10087191, Example 23]
5 | 19.8 | CC1Cc2cc(-c3ccc(N)nc3)ccc2C(c2c(F)cc(/C=C/C(=O)O)cc2F)N1CC(C)(C)F (stereo not given) [US10087191, Example 27]
6 | 2.28 | CC1Cc2cc(-c3cccnc3)ccc2C(c2c(F)cc(/C=C/C(=O)O)cc2F)N1CC(C)(C)F (stereo not given) [US10087191, Example 28]
7 | 11.4 | CCc1nc(-c2ccc3c(c2)CC(C)N(CC(C)(C)F)C3c2c(F)cc(/C=C/C(=O)O)cc2F)no1 (stereo not given) [US10087191, Example 46]
8 | 3.4 | Cc1ncc(-c2ccc3c(c2)CC(C)N(CC(C)(C)F)C3c2c(F)cc(/C=C/C(=O)O)cc2F)o1 (stereo not given) [US10087191, Example 49]
9 | 7.43 | CC1Cc2cc(-c3nnn(C)n3)ccc2C(c2c(F)cc(/C=C/C(=O)O)cc2F)N1CC(C)(C)F (stereo not given) [US10087191, Example 51]
10 | 17.4 | CC1Cc2cc(-c3ccc(-c4cnn(C)c4)nc3)ccc2C(c2c(F)cc(/C=C/C(=O)O)cc2F)N1CC(C)(C)F (stereo not given) [US10087191, Example 61]
11 | 2.97 | CC1Cc2c(oc3c(F)cccc23)C(c2c(F)cc(/C=C/C(=O)O)cc2F)N1CC(C)(C)F (stereo not given) [US10087191, Example 84]
12 | 15 | CC1Cc2c(oc3ccc(Br)cc23)C(c2c(F)cc(/C=C/C(=O)O)cc2F)N1CC(C)(C)F (stereo not given) [US10087191, Example 87]

Row | SMILES | IC50 [nM]
13 | CC1Cc2cc3c(cc2C(c2c(F)cc(/C=C/C(=O)O)cc2F)N1CC(C)(C)F)OCO3 (stereo not given) [US10087191, Example 1] | 0.77
14 | CC1Cc2c(oc3ccccc23)C(c2c(F)cc(/C=C/C(=O)O)cc2F)N1CC(C)(C)F (stereo not given) [US10087191, Example 4] | 0.73
15 | CC1Cc2sc3ccccc3c2C(c2c(F)cc(/C=C/C(=O)O)cc2F)N1CC(C)(C)F (stereo not given) [US10087191, Example 6] | 4.9
16 | CC1Cc2cc(-c3cnn(C)c3)c(F)cc2C(c2c(F)cc(/C=C/C(=O)O)cc2F)N1CC(C)(C)F (stereo not given) [US10087191, Example 16] | 1.36
17 | CC1Cc2c(ccc3[nH]ncc23)C(c2c(F)cc(/C=C/C(=O)O)cc2F)N1CC(C)(C)F (stereo not given) [US10087191, Example 70] | 0.77
18 | CC1Cc2c(oc3cccc(F)c23)C(c2c(F)cc(/C=C/C(=O)O)cc2F)N1CC(C)(C)F (stereo not given) [US10087191, Example 73] | 0.45
19 | CCn1cc(-c2ccc3oc4c(c3c2)CC(C)N(CC(C)(C)F)C4c2c(F)cc(/C=C/C(=O)O)cc2F)cn1 (stereo not given) [US10087191, Example 76] | 1.39
20 | CC(C)CN1C(C)Cc2c(ccc3[nH]ncc23)C1c1c(F)cc(/C=C/C(=O)O)cc1F (stereo not given) [US10087191, Example 92] | 0.43
